Measurements from patent publication US20220411414A1, “INHIBITORS FOR THE B-CATENIN/B-CELL LYMPHOMA 9 (BCL9) PROTEIN-PROTEIN INTERACTION” (H. LEE MOFFITT CANCER CENTER AND RESEARCH INSTITUTE, INC., priority 2018, published 2022).

Columns and labels:
SW480 = test: MTs growth inhibition assay, SW480; type: cell-based; conditions: Homo sapiens, Wnt/β-catenin-hyperactive, 72 h, read-out: MTs IC50 ± SD SW480
Description: MTs cancer cell growth inhibition assays were conducted for 4 and 5. Three cancer cell lines with hyperactive Wnt/β-catenin signaling, SW480, HCT116, and MDA-MB-231. MTs cell viability assay. Colorectal cancer cell lines, SW480 and HCT116, and triple-negative breast cancer cell line MDA-MB-231 were seeded in 96-well plates at 4×10^3 cells/well, maintained overnight at 37° C., and incubated in the presence of 4 and 5 at various concentrations. Cell viability was monitored after 72 h using a freshly prepared mixture of 1 part phenazine methosulfate (PMS, Sigma) solution (0.92 mg/mL) and 19 parts 3-(4,5-dimethylthiazol-2-yl)-5-(3-carboxymethoxyphenyl)-2-(4-sulfophenyl)-2H-tetrazolium (MTs, Promega) solution (2 mg/mL). Cells were incubated in 10 μL of this solution at 37° C. for 3 h, and A490 was measured. The effect of each compound is expressed as the concentration required to reduce A490 by 50% (IC50) relative to vehicle-treated cells. Experiments were performed in triplicate.

[1] = tested on: FOPFlash (three mutant Tcf4 binding sites) luciferase reporter; test: FOPFlash luciferase reporter assay; type: cell-based; conditions: FIG. 1
Description: Cell transfection and luciferase assay. FuGENE6 (E269A, Promega) 96 well plate format was used for the transfection of HEK293 and SW480 cells according to the manufacturer's instruction. HEK293 cells were co-transfected with 45 ng of TOPFlash or FOPFlash reporter gene, 135 ng pcDNA3.1-β-catenin, and 20 ng of pCMV-RL normalization reporter gene. SW480 cells were co-transfected with 60 ng of the TOPFlash or FOPFlash reporter gene and 40 ng of pCMV-RL normalization reporter. Cells were cultured in DMEM and 10% FBS at 37° C. for 24 h, and different concentrations of inhibitors or DMSO was added. After 24 h, the luciferase reporter activity was measured using the Dual-Glo system (E2940, Promega). Normalized luciferase activity in response to the treatment with 4 and 5 was compared with that obtained from the cells treated with DMSO. Experiments were performed in triplicate.

With `Cl.Cl.O=C(Nc1ccc(O[C@@H]2CCNC2)c(-c2cccc(-c3nn[nH]n3)c2)c1)c1ccc(O[C@H]2CCNC2)c(-c2ccc(F)c(F)c2)c1` [Compound 4, 3′,4′-difluoro-6-(((S)-pyrrolidin-3-yl)oxy)-N-(6-(((R)-pyrrolidin-3-yl)oxy)-3′-(2H-tetrazol-5-yl)-[1,1′-biphenyl]-3-yl)-[1,1′-biphenyl]-3-carboxamide dihydrochloride] the IC50 (SW480) was 41 ± 6.2 µM and the FOPFlash luciferase activity [1] was “did not inhibit”.
